Source: ChEMBL document CHEMBL1201862, “PubChem BioAssay data set” (2004)
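Values below derive from 48-hour exposures of cells grown in 96-well plates, with endpoints linearly interpolated between the two concentrations bracketing the appropriate inhibition level. The concentration for 50% growth inhibition is given as GI50.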 Active and inactive are the calls of the source. Cut-off read from the data, not from the text of the source: active = GI50 up to about 1.1 µM and inactive = higher.

Columns and labels:
Assay in all cases: DTP human tumour cell line panel, 48 h
[1] = tested on: Malme-3M
[2] = tested on: MOLT-4
[3] = tested on: HOP-92
[4] = tested on: DU-145
[5] = tested on: CCRF-CEM
[6] = tested on: UACC-62
[7] = tested on: M14
[8] = tested on: SNB-75
[9] = tested on: 786-0
[10] = tested on: MCF7
[11] = tested on: BT-549
[12] = tested on: IGROV-1
[13] = tested on: PC-3
[14] = tested on: ACHN
[15] = tested on: HL-60
[16] = tested on: HCT-116
[17] = tested on: SF-295
[18] = tested on: K562
[19] = tested on: NCI-H23
[20] = tested on: Hs-578T

Measured: GI50

O=C(Nc1nc2ccc([N+](=O)[O-])cc2[n+]([O-])n1)C(F)(F)F
inactive: [1] 8.02 µM | [2] 24.4 µM | [3] 56.1 µM | [4] 37.9 µM | [5] 26.5 µM | [6] 21.3 µM | [7] 37.3 µM | [8] 46.2 µM | [9] 36.1 µM | [10] 20 µM | [11] 94.2 µM | [12] 18 µM | [13] 28.2 µM | [14] 22 µM | [15] 12.9 µM | [16] 19.8 µM | [17] 27.9 µM | [18] 20 µM | [19] 26.2 µM

COC(=O)C(CC12CC3CC(CC(C3)C1)C2)NC(=O)C(N)CC(=O)O (stereo not drawn)
inactive: [2] > 100 µM | [3] > 100 µM | [4] > 100 µM | [5] > 100 µM | [6] > 100 µM | [8] > 100 µM | [9] > 100 µM | [11] > 100 µM | [20] > 100 µM | [12] > 100 µM | [13] > 100 µM | [14] > 100 µM | [16] > 100 µM | [17] > 100 µM | [18] > 100 µM | [19] > 100 µM

c1ccc(CC2COC(c3cccs3)=N2)cc1 (stereo not drawn)
inactive: [1] > 100 µM | [2] 47.8 µM | [3] 21.4 µM | [4] 42.1 µM | [5] 38.1 µM | [6] > 100 µM | [7] > 100 µM | [8] 42.6 µM | [9] > 100 µM | [10] 17.9 µM | [11] 54.8 µM | [20] 49.5 µM | [12] > 100 µM | [14] 78.5 µM | [15] 37.3 µM | [16] 54.7 µM | [17] > 86.3 µM | [18] 46.6 µM | [19] > 79.8 µM

Cc1cc(S(N)(=O)=O)c(S/C(=N\Nc2ccc([N+](=O)[O-])cc2)c2ccc(Cl)cc2)cc1Cl
inactive: [1] 1.59 µM | [2] 4.1 µM | [3] 2.26 µM | [4] 2.19 µM | [5] 3.56 µM | [6] 4.57 µM | [7] 4.09 µM | [8] 1.83 µM | [9] 2.64 µM | [10] 2.01 µM | [11] 4.65 µM | [20] 4.88 µM | [12] 3.44 µM | [14] 2.96 µM | [15] 44.3 µM | [16] 3.15 µM | [17] 2.11 µM | [18] 3.41 µM | [19] 2.25 µM

C=C(C)/C=C/C(O)[C@](C)(O)[C@H]1[C@H](O)C[C@@]2(C)[C@@H]3CCc4c(cc(OC5OC(CO)C(O)C(O)C5O)c(O)c4C)C3(C)C(=O)C[C@]12C (stereo partly drawn)
inactive: [1] > 100 µM | [2] > 100 µM | [3] > 100 µM | [4] > 100 µM | [5] > 100 µM | [6] 49 µM | [7] > 100 µM | [8] > 100 µM | [9] > 100 µM | [10] > 100 µM | [11] > 10 µM | [12] > 100 µM | [13] > 100 µM | [14] > 100 µM | [16] > 100 µM | [17] > 100 µM | [18] > 100 µM | [19] 64.4 µM

O=C(Nc1ccc(Cl)cc1)c1cc(S(=O)(=O)Nc2n[nH]c(=O)n2-c2ccccc2)c(S)cc1Cl
inactive: [1] > 100 µM | [2] 6.22 µM | [3] > 100 µM | [4] > 100 µM | [5] > 100 µM | [6] > 100 µM | [7] > 100 µM | [9] > 100 µM | [10] > 100 µM | [11] > 100 µM | [20] > 100 µM | [12] > 100 µM | [15] > 100 µM | [16] > 100 µM | [17] > 100 µM | [19] > 100 µM

CCOC(=O)CCC(NC(=O)c1ccc(Nc2nc3ccc(C(F)(F)F)cc3nc2-c2ccccc2)cc1)C(=O)OCC (stereo not drawn)
inactive: [1] 23.1 µM | [2] 22.1 µM | [3] 23.9 µM | [4] > 100 µM | [5] 25.8 µM | [6] 17.3 µM | [7] 19.7 µM | [8] > 100 µM | [9] > 100 µM | [10] 40.8 µM | [11] > 100 µM | [20] 24.4 µM | [12] > 100 µM | [14] > 73.6 µM | [15] > 63.4 µM | [16] > 100 µM | [17] > 100 µM | [18] 44.2 µM | [19] 97.1 µM

CC1(C)Cc2c(cnn2-c2ccc(C(F)(F)F)cc2)-c2[nH]c(-c3ccc(O)cc3)nc21
inactive: [1] 14.6 µM | [2] 2.05 µM | [3] 17.9 µM | [4] 17.5 µM | [5] 2.18 µM | [6] 16.2 µM | [7] 14.9 µM | [8] 8.81 µM | [9] 3.32 µM | [10] 14.2 µM | [11] 12.8 µM | [12] 19.4 µM | [13] 16 µM | [14] 14.6 µM | [15] 4.72 µM | [16] 13.1 µM | [17] 16 µM | [18] 5.15 µM | [19] 18.2 µM

CCN(CC)S(=O)(=O)c1ccc2[nH]c(NC(=O)OC)nc2c1
inactive: [1] > 100 µM | [2] 20.4 µM | [3] 30.1 µM | [4] > 100 µM | [5] 25.9 µM | [7] 47.6 µM | [8] 42.6 µM | [9] 64.4 µM | [11] > 100 µM | [20] > 100 µM | [12] 32.4 µM | [15] 12.9 µM | [16] 37.4 µM | [17] 85.7 µM | [18] 32.1 µM | [19] > 100 µM

c1ccc2sc(C3(N4CCCCCC4)CCCCC3)cc2c1
inactive: [2] 15.6 µM | [3] 17.6 µM | [4] 29.4 µM | [5] 16.7 µM | [6] 20.4 µM | [7] 19.3 µM | [8] 23.8 µM | [9] 19.1 µM | [10] 17.8 µM | [11] 25 µM | [20] 22.4 µM | [12] 36.1 µM | [14] 30.8 µM | [15] 24.2 µM | [16] 20.3 µM | [17] 20.1 µM | [18] 16.7 µM | [19] 20 µM

CC(=O)Oc1cc(C(F)(F)F)ccc1C(=O)OC1(C)OC(=O)c2ccc(C(F)(F)F)cc2O1 (stereo not drawn)
inactive: [1] > 100 µM | [2] > 100 µM | [3] > 100 µM | [4] > 100 µM | [5] > 100 µM | [6] > 100 µM | [7] > 100 µM | [8] 9.86 µM | [9] > 100 µM | [10] > 100 µM | [11] > 100 µM | [12] > 100 µM | [13] > 100 µM | [14] > 100 µM | [15] > 100 µM | [16] > 100 µM | [17] > 100 µM | [18] > 100 µM | [19] > 100 µM
